Results taken from patent US12466839B2, “Allosteric AKT inhibitors for use in the treatment of Hereditary Hemorrhagic Telangiectasia” (VADERIS THERAPEUTICS AG, priority 2020, dated 2025).
pIC50: −log10 of the molar value.

Tests used:
[1] = tested on: mutated forms of all three AKT isoforms containing inactive pleckstrin homology (PH) domains; experiment: Biochemical kinase assay, PH-domain mutants
AKT1 = AKT1 (Homo sapiens, UniProt P31749); experiment: Panel of 450 kinases; assay type: biochemical
p38α = p38α (Homo sapiens, UniProt Q16539); experiment: Panel of 450 kinases and 10-point titration curve; assay type: biochemical
Cav1.2 = Cav1.2 (Homo sapiens, UniProt Q13936); experiment: Cardiac ion channel profile; assay type: cell-based
tumor xenograft = experiment: Tumor xenograft model; assay type: in vivo
A1 = target: T1, A1 (Homo sapiens, UniProt P30542); experiment: Millipore Drug Discovery Safety and Liability Panel; assay type: cell-based
T1 construct: purchased Millipore

A3 = target: T2, A3 (Homo sapiens, UniProt P0DMS8); experiment: as above; assay type: cell-based
T2 construct: purchased Millipore

ADRA1D (DELTA2-79) = target: T3, ADRA1D (DELTA2-79) (Homo sapiens, UniProt P25100); experiment: as above; assay type: cell-based
T3 construct: purchased Millipore

ADRA2A = target: T4, ADRA2A (Homo sapiens, UniProt P08913); experiment: as above; assay type: cell-based
T4 construct: purchased Millipore

ADRB2 = target: T5, ADRB2 (Homo sapiens, UniProt P07550); experiment: as above; assay type: cell-based
T5 construct: purchased Millipore

AT1 = target: T6, AT1 (Homo sapiens, UniProt P30556); experiment: as above; assay type: cell-based
T6 construct: purchased Millipore

BB2 = target: T7, BB2 (Homo sapiens, UniProt P30550); experiment: as above; assay type: cell-based
T7 construct: purchased Millipore

BDKR2 = target: T8, BDKR2 (Homo sapiens, UniProt P30411); experiment: as above; assay type: cell-based
T8 construct: purchased Millipore

C5aR = target: T9, C5aR (Homo sapiens, UniProt P21730); experiment: as above; assay type: cell-based
T9 construct: purchased Millipore

CB1 = target: T10, CB1 (Homo sapiens, UniProt P21554); experiment: as above; assay type: cell-based
T10 construct: purchased Millipore

CB2 = target: T11, CB2 (Homo sapiens, UniProt P34972); experiment: as above; assay type: cell-based
T11 construct: purchased Millipore

D2 = target: T12, D2 (Homo sapiens, UniProt P14416); experiment: as above; assay type: cell-based
T12 construct: purchased Millipore

DP = target: T13, DP (Homo sapiens, UniProt Q13258); experiment: as above; assay type: cell-based
T13 construct: purchased Millipore

EP3 = target: T14, EP3 (Homo sapiens, UniProt P43115); experiment: as above; assay type: cell-based
T14 construct: purchased Millipore

FP = target: T15, FP (Homo sapiens, UniProt P43088); experiment: as above; assay type: cell-based
T15 construct: purchased Millipore

FPR1 = target: T16, FPR1 (Homo sapiens, UniProt P21462); experiment: as above; assay type: cell-based
T16 construct: purchased Millipore

GAL1 = target: T17, GAL1 (Homo sapiens, UniProt P47211); experiment: as above; assay type: cell-based
T17 construct: purchased Millipore

LPA3 = target: T18, LPA3 (Homo sapiens, UniProt Q9UBY5); experiment: as above; assay type: cell-based
T18 construct: purchased Millipore

M3 = target: T19, M3 (Homo sapiens, UniProt P20309); experiment: as above; assay type: cell-based
T19 construct: purchased Millipore

NMU1 = target: T20, NMU1 (Homo sapiens, UniProt Q9HB89); experiment: as above; assay type: cell-based
T20 construct: Millipore

OX1 = target: T21, OX1 (Homo sapiens, UniProt O43613); experiment: as above; assay type: cell-based
T21 construct: Millipore

Thrombin-activated PARs = experiment: as above; assay type: cell-based; conditions: 10 μM
Y2 = target: T22, Y2 (Homo sapiens, UniProt P49146); experiment: as above; assay type: cell-based
T22 construct: Millipore

[2] = read-out: ANTAGONIST mean % inhibition

T18 sequence (Q9UBY5 whole entry, species assumed): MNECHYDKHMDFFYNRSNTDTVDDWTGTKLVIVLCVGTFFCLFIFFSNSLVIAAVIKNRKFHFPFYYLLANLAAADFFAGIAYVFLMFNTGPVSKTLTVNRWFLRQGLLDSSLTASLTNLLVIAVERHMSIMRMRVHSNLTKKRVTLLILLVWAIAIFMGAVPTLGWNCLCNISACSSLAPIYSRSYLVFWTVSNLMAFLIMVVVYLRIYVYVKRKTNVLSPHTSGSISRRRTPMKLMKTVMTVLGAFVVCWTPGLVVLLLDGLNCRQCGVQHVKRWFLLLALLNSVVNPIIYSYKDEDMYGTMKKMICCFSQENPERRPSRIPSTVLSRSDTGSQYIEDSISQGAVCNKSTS
T3 sequence (P25100 with tags, fused parts or gaps limits assumed): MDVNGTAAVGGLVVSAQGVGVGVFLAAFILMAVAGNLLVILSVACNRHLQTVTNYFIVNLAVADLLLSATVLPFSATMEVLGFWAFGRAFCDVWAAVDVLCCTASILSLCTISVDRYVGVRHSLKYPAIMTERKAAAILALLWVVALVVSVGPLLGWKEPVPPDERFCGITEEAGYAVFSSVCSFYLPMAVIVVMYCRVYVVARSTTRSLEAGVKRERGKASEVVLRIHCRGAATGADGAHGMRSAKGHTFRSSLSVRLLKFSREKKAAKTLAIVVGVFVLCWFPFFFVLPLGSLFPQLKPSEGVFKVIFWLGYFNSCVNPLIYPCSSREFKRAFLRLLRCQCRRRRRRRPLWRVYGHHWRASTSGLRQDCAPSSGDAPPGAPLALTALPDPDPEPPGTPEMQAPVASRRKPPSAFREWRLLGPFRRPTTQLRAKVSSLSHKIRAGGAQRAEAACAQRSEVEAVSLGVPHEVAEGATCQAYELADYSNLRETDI
T13 sequence (Q13258 whole entry): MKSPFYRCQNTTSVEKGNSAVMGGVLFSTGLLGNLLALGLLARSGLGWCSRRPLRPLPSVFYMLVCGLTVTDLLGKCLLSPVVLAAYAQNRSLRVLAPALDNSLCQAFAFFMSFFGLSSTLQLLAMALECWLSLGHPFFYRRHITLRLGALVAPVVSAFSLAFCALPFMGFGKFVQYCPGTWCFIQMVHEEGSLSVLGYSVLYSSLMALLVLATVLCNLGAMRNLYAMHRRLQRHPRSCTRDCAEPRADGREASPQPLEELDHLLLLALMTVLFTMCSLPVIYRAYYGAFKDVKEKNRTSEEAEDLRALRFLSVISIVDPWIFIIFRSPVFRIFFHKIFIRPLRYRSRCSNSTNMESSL
T10 sequence (P21554 whole entry): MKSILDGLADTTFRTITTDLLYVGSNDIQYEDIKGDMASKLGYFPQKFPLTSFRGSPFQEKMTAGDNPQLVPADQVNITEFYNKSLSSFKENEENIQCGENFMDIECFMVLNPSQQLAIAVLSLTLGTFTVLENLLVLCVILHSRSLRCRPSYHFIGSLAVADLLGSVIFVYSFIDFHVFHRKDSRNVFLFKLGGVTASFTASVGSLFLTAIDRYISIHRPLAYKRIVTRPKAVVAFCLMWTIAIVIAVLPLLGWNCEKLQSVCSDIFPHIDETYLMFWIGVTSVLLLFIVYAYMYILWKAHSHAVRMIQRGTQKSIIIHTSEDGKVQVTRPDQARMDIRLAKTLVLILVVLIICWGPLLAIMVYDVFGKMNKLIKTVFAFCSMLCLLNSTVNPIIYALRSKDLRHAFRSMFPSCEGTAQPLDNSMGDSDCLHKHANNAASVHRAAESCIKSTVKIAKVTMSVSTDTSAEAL
T12 sequence (P14416 whole entry): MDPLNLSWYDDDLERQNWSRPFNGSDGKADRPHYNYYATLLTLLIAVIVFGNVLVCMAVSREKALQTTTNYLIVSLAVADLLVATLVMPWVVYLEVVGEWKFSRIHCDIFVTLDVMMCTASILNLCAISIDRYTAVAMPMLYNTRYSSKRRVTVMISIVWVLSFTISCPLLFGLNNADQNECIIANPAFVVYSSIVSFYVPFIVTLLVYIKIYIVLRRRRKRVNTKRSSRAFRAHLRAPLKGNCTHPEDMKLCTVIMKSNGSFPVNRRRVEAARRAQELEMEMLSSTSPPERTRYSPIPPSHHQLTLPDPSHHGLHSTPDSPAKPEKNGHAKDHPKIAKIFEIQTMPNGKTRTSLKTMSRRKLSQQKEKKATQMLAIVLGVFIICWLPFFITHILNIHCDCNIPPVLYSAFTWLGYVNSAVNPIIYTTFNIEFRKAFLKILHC
T19 sequence (P20309 whole entry): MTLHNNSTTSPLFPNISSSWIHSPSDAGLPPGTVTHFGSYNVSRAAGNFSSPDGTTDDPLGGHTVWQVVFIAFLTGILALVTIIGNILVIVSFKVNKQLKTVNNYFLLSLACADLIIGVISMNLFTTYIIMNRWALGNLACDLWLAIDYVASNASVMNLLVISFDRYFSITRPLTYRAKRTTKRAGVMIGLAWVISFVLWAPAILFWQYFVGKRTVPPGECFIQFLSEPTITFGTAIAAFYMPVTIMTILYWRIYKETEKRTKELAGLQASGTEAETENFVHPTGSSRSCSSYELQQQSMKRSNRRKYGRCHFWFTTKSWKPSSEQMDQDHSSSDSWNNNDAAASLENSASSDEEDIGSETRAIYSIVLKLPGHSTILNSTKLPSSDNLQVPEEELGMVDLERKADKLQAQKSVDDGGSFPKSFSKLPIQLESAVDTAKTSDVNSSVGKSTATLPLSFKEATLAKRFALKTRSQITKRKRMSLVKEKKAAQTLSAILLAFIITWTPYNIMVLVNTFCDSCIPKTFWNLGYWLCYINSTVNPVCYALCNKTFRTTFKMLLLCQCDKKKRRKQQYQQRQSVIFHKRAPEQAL
T20 sequence (Q9HB89 whole entry): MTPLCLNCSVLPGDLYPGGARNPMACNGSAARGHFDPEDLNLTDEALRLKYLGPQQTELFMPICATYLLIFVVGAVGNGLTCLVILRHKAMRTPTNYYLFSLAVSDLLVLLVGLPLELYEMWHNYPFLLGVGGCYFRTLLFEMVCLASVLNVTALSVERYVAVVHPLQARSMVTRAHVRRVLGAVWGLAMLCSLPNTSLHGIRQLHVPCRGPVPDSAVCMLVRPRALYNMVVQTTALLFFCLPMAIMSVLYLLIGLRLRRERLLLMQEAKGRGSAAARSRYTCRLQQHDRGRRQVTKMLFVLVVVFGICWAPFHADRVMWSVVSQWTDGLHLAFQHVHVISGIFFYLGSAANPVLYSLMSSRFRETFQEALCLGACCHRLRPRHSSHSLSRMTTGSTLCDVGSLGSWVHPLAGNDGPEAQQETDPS
T7 sequence (P30550 whole entry): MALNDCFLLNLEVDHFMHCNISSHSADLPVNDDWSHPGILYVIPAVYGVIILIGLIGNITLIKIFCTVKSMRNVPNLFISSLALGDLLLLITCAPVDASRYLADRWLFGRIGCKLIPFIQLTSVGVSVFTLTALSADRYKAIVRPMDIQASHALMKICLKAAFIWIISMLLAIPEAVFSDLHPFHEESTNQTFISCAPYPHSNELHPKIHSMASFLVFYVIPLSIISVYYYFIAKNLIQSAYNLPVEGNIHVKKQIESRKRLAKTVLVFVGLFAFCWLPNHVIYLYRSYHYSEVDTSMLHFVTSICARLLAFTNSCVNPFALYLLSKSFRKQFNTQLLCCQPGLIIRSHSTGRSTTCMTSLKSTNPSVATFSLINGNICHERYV
Chain of p38α (Q16539 whole entry): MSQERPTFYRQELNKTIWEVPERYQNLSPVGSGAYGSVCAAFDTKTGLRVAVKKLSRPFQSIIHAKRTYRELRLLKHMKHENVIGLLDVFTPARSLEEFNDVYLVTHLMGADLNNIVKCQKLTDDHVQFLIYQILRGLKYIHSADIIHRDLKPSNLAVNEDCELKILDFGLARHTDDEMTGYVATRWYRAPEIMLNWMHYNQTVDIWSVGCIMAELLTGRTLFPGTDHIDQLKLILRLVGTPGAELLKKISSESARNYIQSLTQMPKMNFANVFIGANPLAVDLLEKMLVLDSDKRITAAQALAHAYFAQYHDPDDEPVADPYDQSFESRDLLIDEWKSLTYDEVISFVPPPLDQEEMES
T4 sequence (P08913 whole entry): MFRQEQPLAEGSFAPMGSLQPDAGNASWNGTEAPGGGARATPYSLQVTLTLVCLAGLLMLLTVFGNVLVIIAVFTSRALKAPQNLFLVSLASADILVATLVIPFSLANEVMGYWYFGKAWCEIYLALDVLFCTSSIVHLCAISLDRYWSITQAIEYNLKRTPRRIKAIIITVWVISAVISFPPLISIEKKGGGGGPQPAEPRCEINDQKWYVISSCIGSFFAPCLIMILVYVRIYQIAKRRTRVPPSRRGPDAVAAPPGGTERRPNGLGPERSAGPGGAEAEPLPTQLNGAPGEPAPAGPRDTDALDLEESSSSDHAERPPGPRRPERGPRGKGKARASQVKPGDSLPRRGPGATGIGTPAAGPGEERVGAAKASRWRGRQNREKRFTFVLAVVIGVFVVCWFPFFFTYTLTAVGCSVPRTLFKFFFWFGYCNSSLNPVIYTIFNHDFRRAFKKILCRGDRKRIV
T16 sequence (P21462 whole entry, species assumed): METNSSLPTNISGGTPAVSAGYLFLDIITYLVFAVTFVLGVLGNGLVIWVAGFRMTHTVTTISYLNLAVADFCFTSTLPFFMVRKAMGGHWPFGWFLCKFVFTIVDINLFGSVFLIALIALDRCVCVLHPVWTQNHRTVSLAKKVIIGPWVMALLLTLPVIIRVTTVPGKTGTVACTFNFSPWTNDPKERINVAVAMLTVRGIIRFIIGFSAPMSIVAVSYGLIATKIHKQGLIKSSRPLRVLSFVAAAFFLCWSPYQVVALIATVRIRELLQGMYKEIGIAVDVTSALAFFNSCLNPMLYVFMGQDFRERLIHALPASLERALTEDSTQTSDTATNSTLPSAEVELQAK

In the case of CCN1C(=O)COc2nc(-c3ccc(C4(N)CC(O)C4)cc3)c(-c3ccccc3)cc21.O=C(O)C(O)C(O)C(=O)O [VAD044, 6-(4-(1-amino-3-hydroxycyclobutyl)phenyl)-1-ethyl-7-phenyl-1H-pyrido[2,3-b][1,4]oxazin-2(3H)-one L-tartrate], the “inhibition of mutated AKT forms” value [1] was “not inhibited”, the inhibition at 10 µM (AKT1) was 89% and the inhibition at 10 µM (p38α; 10 μM) was 84%. The pIC50 (p38α; 10-point titration curve) was less than 5.00, the inhibition at 10 µM (Cav1.2) was less than 25% and the “minimal effective dose in vivo” value (tumor xenograft) was 30 mg/kg. The activation at 10 µM (A1; A1, 10 μM, read-out: AGONIST mean % increase in activity) was 0%, the inhibition at 10 µM (A1; [2]) was 7.7% and the activation at 10 µM (A3; read-out: AGONIST mean % increase in activity) was 0.2%. For the same compound, the inhibition at 10 µM (A3; [2]) was 28.5%, the activation at 10 µM (ADRA1D (DELTA2-79); ADRA1D (DELTA2-79), 10 μM, read-out: AGONIST mean % increase in activity) was -0.1% and the inhibition at 10 µM (ADRA1D (DELTA2-79); [2]) was 7%. The activation at 10 µM (ADRA2A; ADRA2A, 10 μM, read-out: AGONIST mean % increase in activity) was -0.2%, the inhibition at 10 µM (ADRA2A; [2]) was 11.8% and the activation at 10 µM (ADRB2; ADRB2, 10 μM, read-out: AGONIST mean % increase in activity) was 0.8%. The inhibition at 10 µM (ADRB2; [2]) was 6.1%, the activation at 10 µM (AT1; AT1, 10 μM, read-out: AGONIST mean % increase in activity) was -0.1% and the inhibition at 10 µM (AT1; [2]) was 5.4%. The activation at 10 µM (BB2; BB2, 10 μM, read-out: AGONIST mean % increase in activity) was -0.9%, the inhibition at 10 µM (BB2; [2]) was 0.9% and the activation at 10 µM (BDKR2; BDKR2, 10 μM, read-out: AGONIST mean % increase in activity) was -0.4%. The inhibition at 10 µM (BDKR2; [2]) was 14.6%, the activation at 10 µM (C5aR; C5aR, 10 μM, read-out: AGONIST mean % increase in activity) was -1.2% and the inhibition at 10 µM (C5aR; [2]) was 1.5%. The activation at 10 µM (CB1; CB1, 10 μM, read-out: AGONIST mean % increase in activity) was -0.5%, the inhibition at 10 µM (CB1; [2]) was -4.1% and the activation at 10 µM (CB2; CB2, 10 μM, read-out: AGONIST mean % increase in activity) was -0.9%. The inhibition at 10 µM (CB2; [2]) was 10.6%, the activation at 10 µM (D2; D2, 10 μM, read-out: AGONIST mean % increase in activity) was -1.1% and the inhibition at 10 µM (D2; [2]) was -0.2%. It also gave an activation at 10 µM (DP; DP, 10 μM, read-out: AGONIST mean % increase in activity) of -1.7%, an inhibition at 10 µM (DP; [2]) of 5.8% and an activation at 10 µM (EP3; EP3, 10 μM, read-out: AGONIST mean % increase in activity) of -0.1%. For the same compound, the inhibition at 10 µM (EP3; [2]) was 9.2%, the activation at 10 µM (FP; FP, 10 μM, read-out: AGONIST mean % increase in activity) was -0.7% and the inhibition at 10 µM (FP; [2]) was 13.6%. For the same compound, the activation at 10 µM (FPR1; FPR1, 10 μM, read-out: AGONIST mean % increase in activity) was -0.1%, the inhibition at 10 µM (FPR1; [2]) was 13.3% and the activation at 10 µM (GAL1; GAL1, 10 μM, read-out: AGONIST mean % increase in activity) was 0.3%. For the same compound, the inhibition at 10 µM (GAL1; [2]) was 3.4%, the activation at 10 µM (LPA3; LPA3, 10 μM, read-out: AGONIST mean % increase in activity) was -0.7% and the inhibition at 10 µM (LPA3; [2]) was -0.2%. For the same compound, the activation at 10 µM (M3; M3, 10 μM, read-out: AGONIST mean % increase in activity) was -0.5%, the inhibition at 10 µM (M3; [2]) was 5.3% and the activation at 10 µM (NMU1; NMU1, 10 μM, read-out: AGONIST mean % increase in activity) was -3.1%. The inhibition at 10 µM (NMU1; [2]) was 5.5%, the activation at 10 µM (OX1; OX1, 10 μM, read-out: AGONIST mean % increase in activity) was -1.8% and the inhibition at 10 µM (OX1; [2]) was -3.8%. The “AGONIST mean % increase in activity” value (Thrombin-activated PARs) was 0%, the “ANTAGONIST mean % inhibition” value (Thrombin-activated PARs) was −1.2% and the activation at 10 µM (Y2; Y2, 10 μM, read-out: AGONIST mean % increase in activity) was -2.2%. The inhibition at 10 µM (Y2; [2]) was -5.7%.
